# Experimental data taken from US20240317721A1, “PYRAZOLYL DERIVATIVES AS INHIBITORS OF THE KRAS MUTANT PROTEIN” (NOVARTIS AG, priority 2021, published 2024).
# Molecular target: KRasG12C (M1-K169, biotinylated on the N-terminus) (Homo sapiens (Human), UniProt P01116, G12C)
# Assay: Covalent competition assay: scintillation proximity assay (SPA) quantifying covalent modification of KRASG12C
# Type: binding
# Settings: competition with radiolabeled covalent probe (Compound B/Compound A), 2 hours incubation, 10 nM KRasG12C
# Procedure, shortened: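 Test compounds compete with a radiolabeled covalent probe for modification of N-terminally biotinylated KRasG12C(M1-K169):GDP, final 10 nM protein, 25 nM radio-ligand, 475 nM unlabelled ligand, 2 h with agitation in 20 mM Tris-HCl pH 7.5, 150 mM NaCl, 0.1 mM MgCl2, 0.01% Tween-20.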
row,Compound,IC50
1,"C=CC(=O)N1CC2(CC(n3nc(N4CC[C@@H](CN5CCOCC5)CC4(C)C)c(-c4c(C)c(Cl)cc5[nH]ncc45)c3C)C2)C1 (single isomer, unassigned) [Example 233b]",0.02 µM
2,"C=CC(=O)N1CC2(CC(n3nc(N4CC[C@@H](CN5CC6(CCCO6)C5)CC4(C)C)c(-c4c(Cl)c(Cl)cc5[nH]ncc45)c3C)C2)C1 (single isomer, unassigned) [Example 234a]",1 µM
3,"C=CC(=O)N1CC2(CC(n3nc(N4CC[C@@H](CN5CC6(CCCO6)C5)CC4(C)C)c(-c4c(Cl)c(Cl)cc5[nH]ncc45)c3C)C2)C1 (single isomer, unassigned) [Example 234b]",0.009 µM
4,"C=CC(=O)N1CC2(CC(n3nc(N4CCC(CN5CCS(=O)(=O)CC5)CC4(C)C)c(-c4c(Cl)c(Cl)cc5[nH]ncc45)c3C)C2)C1 (single isomer, unassigned) [Example 235a, 1-(6-(4-(5,6-dichloro-1H-indazol-4-yl)-3-(4-((1,1-dioxidothiomorpholino)methyl)-2,2-dimethylpiperidin-1-yl)-5-methyl-1H-pyrazol-1-yl)-2-azaspiro[3.3]heptan-2-yl)prop-2-en-1-one]",0.932 µM
5,"C=CC(=O)N1CC2(CC(n3nc(N4CCC(CN5CCS(=O)(=O)CC5)CC4(C)C)c(-c4c(Cl)c(Cl)cc5[nH]ncc45)c3C)C2)C1 (single isomer, unassigned) [Example 235b, 1-(6-(4-(5,6-dichloro-1H-indazol-4-yl)-3-(4-((1,1-dioxidothiomorpholino)methyl)-2,2-dimethylpiperidin-1-yl)-5-methyl-1H-pyrazol-1-yl)-2-azaspiro[3.3]heptan-2-yl)prop-2-en-1-one]",0.01 µM
6,"C=CC(=O)N1CC2(CC(n3nc(N4CCC(CN5CCS(=O)(=O)CC5)CC4(C)C)c(-c4c(Cl)c(Cl)cc5[nH]ncc45)c3C)C2)C1 (single isomer, unassigned) [Example 236a, 1-(6-(4-(5,6-dichloro-1H-indazol-4-yl)-3-(4-((1,1-dioxidothiomorpholino)methyl)-2,2-dimethylpiperidin-1-yl)-5-methyl-1H-pyrazol-1-yl)-2-azaspiro[3.3]heptan-2-yl)prop-2-en-1-one]",0.168 µM
7,"C=CC(=O)N1CC2(CC(n3nc(N4CCC(CN5CCS(=O)(=O)CC5)CC4(C)C)c(-c4c(Cl)c(Cl)cc5[nH]ncc45)c3C)C2)C1 (single isomer, unassigned) [Example 236b, 1-(6-(4-(5,6-dichloro-1H-indazol-4-yl)-3-(4-((1,1-dioxidothiomorpholino)methyl)-2,2-dimethylpiperidin-1-yl)-5-methyl-1H-pyrazol-1-yl)-2-azaspiro[3.3]heptan-2-yl)prop-2-en-1-one]",2.5 µM
8,"C=CC(=O)N1CC2(CC(n3nc(N4CCC(O)(CN5CCOCC5)CC4(C)C)c(-c4c(Cl)c(Cl)cc5[nH]ncc45)c3C)C2)C1 (single isomer, unassigned) [Example 237a, 1-(6-(4-(5,6-dichloro-1H-indazol-4-yl)-3-(4-hydroxy-2,2-dimethyl-4-(morpholinomethyl)piperidin-1-yl)-5-methyl-1H-pyrazol-1-yl)-2-azaspiro[3.3]heptan-2-yl)prop-2-en-1-one]",> 5 µM
9,"C=CC(=O)N1CC2(CC(n3nc(N4CCC(O)(CN5CCOCC5)CC4(C)C)c(-c4c(Cl)c(Cl)cc5[nH]ncc45)c3C)C2)C1 (single isomer, unassigned) [Example 237b, 1-(6-(4-(5,6-dichloro-1H-indazol-4-yl)-3-(4-hydroxy-2,2-dimethyl-4-(morpholinomethyl)piperidin-1-yl)-5-methyl-1H-pyrazol-1-yl)-2-azaspiro[3.3]heptan-2-yl)prop-2-en-1-one]",0.031 µM
10,"C=CC(=O)N1CC2(CC(n3nc(N4CCC(O)(CN5CCOCC5)CC4(C)C)c(-c4c(Cl)c(Cl)cc5[nH]ncc45)c3C)C2)C1 (single isomer, unassigned) [Example 238a, 1-(6-(4-(5,6-dichloro-1H-indazol-4-yl)-3-(4-hydroxy-2,2-dimethyl-4-(morpholinomethyl)piperidin-1-yl)-5-methyl-1H-pyrazol-1-yl)-2-azaspiro[3.3]heptan-2-yl)prop-2-en-1-one]",0.036 µM
11,"C=CC(=O)N1CC2(CC(n3nc(N4CCC(O)(CN5CCOCC5)CC4(C)C)c(-c4c(Cl)c(Cl)cc5[nH]ncc45)c3C)C2)C1 (single isomer, unassigned) [Example 238b, 1-(6-(4-(5,6-dichloro-1H-indazol-4-yl)-3-(4-hydroxy-2,2-dimethyl-4-(morpholinomethyl)piperidin-1-yl)-5-methyl-1H-pyrazol-1-yl)-2-azaspiro[3.3]heptan-2-yl)prop-2-en-1-one]",0.503 µM
12,"C=CC(=O)N1CC2(CC(n3nc(N4CCC(CN5CCN(C)C(=O)C5)CC4(C)C)c(-c4c(Cl)c(Cl)cc5[nH]ncc45)c3C)C2)C1 (single isomer, unassigned) [Example 239a, 4-((1-(1-(2-acryloyl-2-azaspiro[3.3]heptan-6-yl)-4-(5,6-dichloro-1H-indazol-4-yl)-5-methyl-1H-pyrazol-3-yl)-2,2-dimethylpiperidin-4-yl)methyl)-1-methylpiperazin-2-one]",1.6 µM
13,"C=CC(=O)N1CC2(CC(n3nc(N4CCC(CN5CCN(C)C(=O)C5)CC4(C)C)c(-c4c(Cl)c(Cl)cc5[nH]ncc45)c3C)C2)C1 (single isomer, unassigned) [Example 239b, 4-((1-(1-(2-acryloyl-2-azaspiro[3.3]heptan-6-yl)-4-(5,6-dichloro-1H-indazol-4-yl)-5-methyl-1H-pyrazol-3-yl)-2,2-dimethylpiperidin-4-yl)methyl)-1-methylpiperazin-2-one]",0.009 µM
14,"C=CC(=O)N1CC2(CC(n3nc(N4CCC(CN5CCN(C)CC5=O)CC4(C)C)c(-c4c(Cl)c(Cl)cc5[nH]ncc45)c3C)C2)C1 (single isomer, unassigned) [Example 240a, 1-((1-(1-(2-acryloyl-2-azaspiro[3.3]heptan-6-yl)-4-(5,6-dichloro-1H-indazol-4-yl)-5-methyl-1H-pyrazol-3-yl)-2,2-dimethylpiperidin-4-yl)methyl)-4-methylpiperazin-2-one]",0.39 µM
15,"C=CC(=O)N1CC2(CC(n3nc(N4CCC(CN5CCN(C)CC5=O)CC4(C)C)c(-c4c(Cl)c(Cl)cc5[nH]ncc45)c3C)C2)C1 (single isomer, unassigned) [Example 240b, 1-((1-(1-(2-acryloyl-2-azaspiro[3.3]heptan-6-yl)-4-(5,6-dichloro-1H-indazol-4-yl)-5-methyl-1H-pyrazol-3-yl)-2,2-dimethylpiperidin-4-yl)methyl)-4-methylpiperazin-2-one]",0.008 µM
16,"C=CC(=O)N1CC2(CC(n3nc(N4CC[C@@H](CN5CCOCC5)CC4(C)C)c(-c4c(Cl)c(Cl)cc5[nH]nc(N)c45)c3C)C2)C1 (single isomer, unassigned) [Example 241a]",0.008 µM
17,"C=CC(=O)N1CC2(CC(n3nc(N4CC[C@@H](CN5CCOCC5)CC4(C)C)c(-c4c(Cl)c(Cl)cc5[nH]nc(N)c45)c3C)C2)C1 (single isomer, unassigned) [Example 241b]",0.536 µM
18,"C=CC(=O)N1CC2(CC(n3nc(N4CC[C@@H](CN5CCOCC5)CC4(C)C)c(-c4c(Cl)c(C)cc5[nH]nc(N)c45)c3C)C2)C1 (single isomer, unassigned) [Example 242a]",0.013 µM
19,"C=CC(=O)N1CC2(CC(n3nc(N4CC[C@@H](CN5CCOCC5)CC4(C)C)c(-c4c(Cl)c(C)cc5[nH]nc(N)c45)c3C)C2)C1 (single isomer, unassigned) [Example 242b]",1.4 µM
20,"C=CC(=O)N1CC2(CC(n3nc(N4CC[C@@H](CN5CCN(C6COC6)CC5)CC4(C)C)c(-c4c(Cl)c(Cl)cc5[nH]ncc45)c3C)C2)C1 (single isomer, unassigned) [Example 243a]",3.8 µM
21,"C=CC(=O)N1CC2(CC(n3nc(N4CC[C@@H](CN5CCN(C6COC6)CC5)CC4(C)C)c(-c4c(Cl)c(Cl)cc5[nH]ncc45)c3C)C2)C1 (single isomer, unassigned) [Example 243b]",0.006 µM
22,"C=CC(=O)N1CC2(CC(n3nc(N4CC[C@@H](CN5CCN(C6COC6)CC5)CC4(C)C)c(-c4c(C)c(Cl)cc5[nH]ncc45)c3C)C2)C1 (single isomer, unassigned) [Example 244a]",1.4 µM
23,"C=CC(=O)N1CC2(CC(n3nc(N4CC[C@@H](CN5CCN(C6COC6)CC5)CC4(C)C)c(-c4c(C)c(Cl)cc5[nH]ncc45)c3C)C2)C1 (single isomer, unassigned) [Example 244b]",0.006 µM
24,"C=CC(=O)N1CC2(CC(n3nc(N4CC[C@@H](CN5CCN(C6COC6)CC5)CC4(C)C)c(-c4c(Cl)c(F)cc5[nH]ncc45)c3C)C2)C1 (single isomer, unassigned) [Example 245a]",1.8 µM
25,"C=CC(=O)N1CC2(CC(n3nc(N4CC[C@@H](CN5CCN(C6COC6)CC5)CC4(C)C)c(-c4c(Cl)c(F)cc5[nH]ncc45)c3C)C2)C1 (single isomer, unassigned) [Example 245b]",0.014 µM
26,"C=CC(=O)N1CC2(CC(n3nc(N4CC[C@@H](CN5CCN(C6COC6)CC5)CC4(C)C)c(-c4c(Cl)c(C)cc5[nH]ncc45)c3C)C2)C1 (single isomer, unassigned) [Example 246a]",> 5 µM
27,"C=CC(=O)N1CC2(CC(n3nc(N4CC[C@@H](CN5CCN(C6COC6)CC5)CC4(C)C)c(-c4c(Cl)c(C)cc5[nH]ncc45)c3C)C2)C1 (single isomer, unassigned) [Example 246b]",0.015 µM
28,"C=CC(=O)N1CC2(CC(n3nc(N4CC[C@@H](CN5CCO[C@@H](CO)C5)CC4(C)C)c(-c4c(Cl)c(Cl)cc5[nH]ncc45)c3C)C2)C1 (single isomer, unassigned) [Example 247a]",1.4 µM
29,"C=CC(=O)N1CC2(CC(n3nc(N4CC[C@@H](CN5CCO[C@@H](CO)C5)CC4(C)C)c(-c4c(Cl)c(Cl)cc5[nH]ncc45)c3C)C2)C1 (single isomer, unassigned) [Example 247b]",0.009 µM
30,"C=CC(=O)N1CC2(CC(n3nc(N4CC[C@@H](CN5CC6(C5)CS(=O)(=O)C6)CC4(C)C)c(-c4c(Cl)c(Cl)cc5[nH]ncc45)c3C)C2)C1 (single isomer, unassigned) [Example 248a]",> 5 µM
